33 molecules from US20230250106A1, “COMPOUNDS AND COMPOSITIONS FOR TREATING CONDITIONS ASSOCIATED WITH STING ACTIVITY” (IFM Due, Inc., priority 2020, published 2023) can be followed below.

This assay deals with STING pathway. The experiment in a line: STING reporter assay: luciferase reporter activity in THP1-Dual KO-IFNAR2 cells activated with 2'3'cGAMP. Particulars: 2'3'cGAMP 15 μM, 24 h; for EC50: Homo sapiens, read-out: hSTING EC50. The format is cell-based. Details: hSTING EC50: scale not given here. The procedure, abridged:
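THP1-Dual KO-IFNAR2 cells were exposed to compounds at 0.0017-100 μM final and stimulated with 2′3′cGAMP (15 μM final) delivered with Lipofectamine 2000. After 24 h at 37 °C, secreted luciferase in the supernatant was read with QUANTI-Luc Plus, and EC50 values were calculated.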
Background: A reporter such as luciferase makes a cellular process visible.

As usually defined, the EC50 is the concentration needed to bring the measured effect to its halfway point. As to `Cc1ncc(C(=O)Nc2c[nH]c3cc(F)c(F)cc23)cc1NCCCC(F)(F)F` [Compound 243, N-(5,6-difluoro-1H-indol-3-yl)-6-methyl-5-((4,4,4-trifluorobutyl)amino)nicotinamide], the EC50 lay within 200 to 1000 nM.

As for `O=C(Nc1c[nH]c2cc(F)c(F)cc12)c1ccnc(N2CC(F)(F)C2)c1Cl` [Compound 252, 3-chloro-N-(5,6-difluoro-1H-indol-3-yl)-2-(3,3-difluoroazetidin-1-yl)isonicotinamide], the EC50 fell in the range of 1000 to 5000 nM.

As to `O=C(Nc1c[nH]c2cc(F)c(F)cc12)c1cccc(OC(F)(F)C(F)F)c1` [Compound 117, N-(5,6-difluoro-1H-indol-3-yl)-3-(1,1,2,2-tetrafluoroethoxy)benzamide], the EC50 was 200 to 1000 nM.

For the molecule `O=C(Nc1c[nH]c2cc(F)c(F)cc12)c1ccc(OC2CCCC2)cc1` [Compound 168, 4-(cyclopentyloxy)-N-(5,6-difluoro-1H-indol-3-yl)benzamide], the EC50 lay in the range of 200 to 1000 nM.

For `N#Cc1cc(C(=O)Nc2c[nH]c3cc(F)c(F)cc23)cnc1N1CCC(F)(F)CC1` [Compound 107, 5-cyano-N-(5,6-difluoro-1H-indol-3-yl)-6-(4,4-difluoropiperidin-1-yl)nicotinamide], the EC50 is 200 to 1000 nM.

Turning to `O=C(Nc1c[nH]c2ccc(Cl)cc12)c1ccc(N2C[C@@H]3[C@@H](COCC(F)(F)F)[C@@H]3C2)c(F)c1` [Compound 225, N-(5-chloro-1H-indol-3-yl)-3-fluoro-4-((1R,5S,6r)-6-((2,2,2-trifluoroethoxy)methyl)-3-azabicyclo[3.1.0]hexan-3-yl)benzamide], the EC50 is 40 to 200 nM.

`CC(C)Oc1cc(C(=O)Nc2c[nH]c3cc(F)c(F)cc23)ccn1` [Compound 113, N-(5,6-difluoro-1H-indol-3-yl)-2-(propan-2-yloxy)pyridine-4-carboxamide]: the EC50 fell in the range of 200 to 1000 nM.

As to `O=C(Nc1c[nH]c2cc(F)c(F)cc12)c1ccc(OC2CCCCC2)cc1` [Compound 196, 4-(cyclohexyloxy)-N-(5,6-difluoro-1H-indol-3-yl)benzamide], the EC50 lay within 200 to 1000 nM.

For `COc1ncc(C(=O)Nc2c[nH]c3cc(F)c(F)cc23)cc1C(F)(F)F` [Compound 264, N-(5,6-difluoro-1H-indol-3-yl)-6-methoxy-5-(trifluoromethyl)pyridine-3-carboxamide], the “hSTING EC50” value is “+ +”.

On to `COc1ccc2[nH]cc(NC(=O)c3ccc(OCCCC(F)(F)F)c(F)c3)c2n1` [Compound 143, 3-fluoro-N-(5-methoxy-1H-pyrrolo[3,2-b]pyridin-3-yl)-4-(4,4,4-trifluorobutoxy)benzamide], for which the EC50 was in the range of 1000 to 5000 nM.

Take `Cc1cc(C(=O)Nc2c[nH]c3cc(F)c(F)cc23)cnc1N1CC2(CCOC2)C1` [Compound 207, N-(5,6-difluoro-1H-indol-3-yl)-5-methyl-6-(6-oxa-2-azaspiro[3.4]octan-2-yl)nicotinamide]: the EC50 is 1000 to 5000 nM.

Turning to `O=C(Nc1c[nH]c2cc(F)c(F)cc12)c1ccc(-c2noc(C3CC3)n2)cc1` [Compound 266, 4-(5-cyclopropyl-1,2,4-oxadiazol-3-yl)-N-(5,6-difluoro-1H-indol-3-yl)benzamide], the EC50 fell in the range of 200 to 1000 nM.

Take `O=C(Nc1c[nH]c2ncc(F)cc12)c1ccc(OCCCC(F)(F)F)c(F)c1` [Compound 144, 3-fluoro-N-(5-fluoro-1H-pyrrolo[2,3-b]pyridin-3-yl)-4-(4,4,4-trifluorobutoxy)benzamide]: the EC50 lay in the range of 1000 to 5000 nM.

For `O=C(Nc1c[nH]c2ccc(F)cc12)c1ccc(OCCCC(F)(F)F)c(F)c1` [Compound 146, 3-fluoro-N-(5-fluoro-1H-indol-3-yl)-4-(4,4,4-trifluorobutoxy)benzamide], the EC50 is 40 to 200 nM.

Consider `N#Cc1cc(C(=O)Nc2c[nH]c3cc(F)c(F)cc23)ccc1OCCCC(F)(F)F` [Compound 150, 3-cyano-N-(5,6-difluoro-1H-indol-3-yl)-4-(4,4,4-trifluorobutoxy)benzamide], for which the EC50 lay within 40 to 200 nM.

Turning to `O=C(Nc1c[nH]c2cc(F)c(F)cc12)c1ccc(OC(F)(F)F)cc1` [Compound 135, N-(5,6-difluoro-1H-indol-3-yl)-4-(trifluoromethoxy)benzamide], the concentration giving a half-maximal response (EC50) fell in the range of 200 to 1000 nM.

`O=C(Nc1c[nH]c2cc(F)c(F)cc12)c1ccc(OCCCC(F)(F)F)cn1` [Compound 139, N-(5,6-difluoro-1H-indol-3-yl)-5-(4,4,4-trifluorobutoxy)picolinamide]: the EC50 was 200 to 1000 nM.

`O=C(Nc1c[nH]c2cc(F)c(F)cc12)c1ccc(OC(F)(F)C(F)F)cc1` [Compound 268, N-(5,6-difluoro-1H-indol-3-yl)-4-(1,1,2,2-tetrafluoroethoxy)benzamide]: the EC50 is 200 to 1000 nM.

For the molecule `Cc1cc(C(=O)Nc2c[nH]c3cc(F)c(F)cc23)cc(C)c1C1CCC(F)(F)CC1` [Compound 278, N-(5,6-difluoro-1H-indol-3-yl)-4-(4,4-difluorocyclohexyl)-3,5-dimethylbenzamide], the EC50 fell in the range of 1000 to 5000 nM.

For `Cc1cc(N2CC(F)(F)C2)ncc1C(=O)Nc1c[nH]c2ccc(Cl)cc12` [Compound 272, N-(5-chloro-1H-indol-3-yl)-6-(3,3-difluoroazetidin-1-yl)-4-methylnicotinamide], the EC50 lay in the range of 200 to 1000 nM.

Turning to `Cc1nc(C(=O)Nc2c[nH]c3cc(F)c(F)cc23)cnc1OC1CC(F)(F)C1` [Compound 208, N-(5,6-difluoro-1H-indol-3-yl)-5-(3,3-difluorocyclobutoxy)-6-methylpyrazine-2-carboxamide], the EC50 fell in the range of 200 to 1000 nM.

Consider `COCCOc1ccc(C(=O)Nc2c[nH]c3cc(F)c(F)cc23)cn1` [Compound 157, N-(5,6-difluoro-1H-indol-3-yl)-6-(2-methoxyethoxy)nicotinamide], for which the EC50 was in the range of 200 to 1000 nM.

Regarding `O=C(Nc1c[nH]c2cc(F)c(F)cc12)c1cc(CCO)cc(C(F)(F)F)c1` [Compound 279, N-(5,6-difluoro-1H-indol-3-yl)-3-(2-hydroxyethyl)-5-(trifluoromethyl)benzamide], the EC50 was in the range of 1000 to 5000 nM.

In the case of `O=C(Nc1c[nH]c2cc(F)c(F)cc12)c1cnc(NCCC(F)(F)F)c(Cl)c1` [Compound 239, 5-chloro-N-(5,6-difluoro-1H-indol-3-yl)-6-((3,3,3-trifluoropropyl)amino)nicotinamide], the EC50 lay in the range of 200 to 1000 nM.

As for `O=C(Nc1c[nH]c2cc(F)c(F)cc12)c1ccc(OCC(F)(F)F)cc1Cl` [Compound 122, 2-chloro-N-(5,6-difluoro-1H-indol-3-yl)-4-(2,2,2-trifluoroethoxy)benzamide], the EC50 was in the range of 200 to 1000 nM.

For the molecule `O=C(Nc1c[nH]c2cc(F)c(F)cc12)c1ccc(OCC(F)F)cc1` [Compound 174, N-(5,6-difluoro-1H-indol-3-yl)-4-(2,2-difluoroethoxy)benzamide], the EC50 was 200 to 1000 nM.

As for `O=C(Nc1c[nH]c2cc(F)c(F)cc12)c1cnc(CN2CCC(F)(F)CC2)c(Cl)c1` [Compound 254, 5-chloro-N-(5,6-difluoro-1H-indol-3-yl)-6-((4,4-difluoropiperidin-1-yl)methyl)nicotinamide], the EC50 lay in the range of 200 to 1000 nM.

In the case of `O=C(Nc1c[nH]c2cc(F)c(F)cc12)c1cnc(N2CCC(F)(F)CC2)c(F)c1` [Compound 154, N-(5,6-difluoro-1H-indol-3-yl)-6-(4,4-difluoropiperidin-1-yl)-5-fluoronicotinamide], the EC50 lay in the range of 200 to 1000 nM.

Turning to `N#Cc1cc(C(=O)Nc2c[nH]c3ccc(Cl)cc23)cnc1N1CC(F)(F)C1` [Compound 271, N-(5-chloro-1H-indol-3-yl)-5-cyano-6-(3,3-difluoroazetidin-1-yl)nicotinamide], the EC50 was 200 to 1000 nM.

For `N#CC1(c2ccc(C(=O)Nc3c[nH]c4cc(F)c(F)cc34)cc2)CCC(F)(F)CC1` [Compound 213, 4-(1-cyano-4,4-difluorocyclohexyl)-N-(5,6-difluoro-1H-indol-3-yl)benzamide], the EC50 was 200 to 1000 nM.

Take `COCc1cccc(-n2cc(-c3ccc4[nH]cc(NC(=O)c5ccc(OCCCC(F)(F)F)cc5)c4c3)cn2)c1` [Compound 200, N-(5-(1-(3-(methoxymethyl)phenyl)-1H-pyrazol-4-yl)-1H-indol-3-yl)-4-(4,4,4-trifluorobutoxy)benzamide]: the EC50 was in the range of 200 to 1000 nM.

`O=C(Nc1c[nH]c2cc(F)c(F)cc12)c1ccc(CCOC(F)(F)F)cc1` [Compound 110, N-(5,6-difluoro-1H-indol-3-yl)-4-(2-(trifluoromethoxy)ethyl)benzamide]: the EC50 lay within 40 to 200 nM.

Take `O=C(Nc1c[nH]c2cc(F)c(F)cc12)c1ccnc(CN2CC(F)(F)C2)c1` [Compound 257, N-(5,6-difluoro-1H-indol-3-yl)-2-((3,3-difluoroazetidin-1-yl)methyl)isonicotinamide]: the EC50 was 5000 to 100000 nM.
